Experimental data published in ChEMBL document CHEMBL1275576, “In vitro activity of tomopenem (CS-023/RO4908463) against anaerobic bacteria” (Antimicrob Agents Chemother, 2009).

Legend:
Bacteroides fragilis [1] = assay: Antimicrobial activity against Bacteroides fragilis by agar dilution method in presence of 5% laked sheep blood; format: functional
Phocaeicola vulgatus [2] = assay: Antimicrobial activity against Bacteroides vulgatus GAI 0673 by agar dilution method in presence of 5% laked sheep blood; format: functional
[3] = tested on: Enterocloster clostridioformis; assay: Antimicrobial activity against Clostridium clostridioforme NCTC 11224 by agar dilution method in presence of 5% laked sheep blood; format: functional
[4] = Antimicrobial activity against Desulfovibrio piger DSM 749 by agar dilution method in presence of 5% laked sheep blood; format: functional, Desulfovibrio piger ATCC 29098
Bacteroides fragilis [5] = assay: Antimicrobial activity against Bacteroides fragilis GAI 0558 by agar dilution method in presence of 5% laked sheep blood; format: functional
Eggerthella lenta = assay: Antimicrobial activity against Eggerthella lenta by agar dilution method in presence of 5% laked sheep blood; format: functional
[6] = tested on: Limosilactobacillus reuteri; assay: Antimicrobial activity against Lactobacillus reuteri JCM 1112 by agar dilution method in presence of 5% laked sheep blood; format: functional
Clostridioides difficile = assay: Antimicrobial activity against Clostridium difficile by agar dilution method in presence of 5% laked sheep blood; format: functional
Bacteroides fragilis [7] = assay: Antimicrobial activity against Bacteroides fragilis ATCC 25285 by agar dilution method in presence of 5% laked sheep blood; format: functional; conditions: NCTC 9343
[8] = tested on: Fusobacterium necrophorum; assay: Antimicrobial activity against Fusobacterium necrophorum by agar dilution method in presence of 5% laked sheep blood; format: functional
Eubacterium limosum = assay: Antimicrobial activity against Eubacterium limosum by agar dilution method in presence of 5% laked sheep blood; format: functional
[9] = tested on: Bacteroides thetaiotaomicron; assay: Antimicrobial activity against Bacteroides thetaiotaomicron by agar dilution method in presence of 5% laked sheep blood; format: functional
[10] = tested on: Desulfovibrio desulfuricans; assay: Antimicrobial activity against Desulfovibrio desulfuricans by agar dilution method in presence of 5% laked sheep blood; format: functional
[11] = Antimicrobial activity against Finegoldia magna ATCC 29328 by agar dilution method in presence of 5% laked sheep blood; format: functional
Bacteroides uniformis = assay: Antimicrobial activity against Bacteroides uniformis by agar dilution method in presence of 5% laked sheep blood; format: functional
[12] = tested on: Prevotella melaninogenica; assay: Antimicrobial activity against Prevotella melaninogenica by agar dilution method in presence of 5% laked sheep blood; format: functional
[13] = tested on: Bifidobacterium pseudolongum; assay: Antimicrobial activity against Bifidobacterium pseudolongum ATCC 25526 by agar dilution method in presence of 5% laked sheep blood; format: functional
[14] = tested on: Bacteroides eggerthii DSM 20697; assay: Antimicrobial activity against Bacteroides eggerthii ATCC 27754 by agar dilution method in presence of 5% laked sheep blood; format: functional
Bacteroides fragilis [15] = assay: Antimicrobial activity against Bacteroides fragilis NCTC 10581 by agar dilution method in presence of 5% laked sheep blood; format: functional
Phocaeicola vulgatus [16] = assay: Antimicrobial activity against Bacteroides vulgatus by agar dilution method in presence of 5% laked sheep blood; format: functional
Prevotella sp. = assay: Antimicrobial activity against Prevotella sp. by agar dilution method in presence of 5% laked sheep blood; format: functional
Lactobacillus brevis = assay: Antimicrobial activity against Lactobacillus brevis subsp. brevis JCM 1059 by agar dilution method in presence of 5% laked sheep blood; format: functional; conditions: Levilactobacillus brevis
Prevotella buccae = assay: Antimicrobial activity against Prevotella buccae ATCC 33574 by agar dilution method in presence of 5% laked sheep blood; format: functional; conditions: Segatella buccae
Porphyromonas gingivalis [17] = assay: Antimicrobial activity against Porphyromonas gingivalis ATCC 33277 by agar dilution method in presence of 5% laked sheep blood; format: functional
Finegoldia magna = assay: Antimicrobial activity against Finegoldia magna by agar dilution method in presence of 5% laked sheep blood; format: functional
Bacteroides fragilis [18] = assay: Antimicrobial activity against Bacteroides fragilis GAI 7955 by agar dilution method in presence of 5% laked sheep blood; format: functional
Parvimonas micra [19] = assay: Antimicrobial activity against Parvimonas micra VPI 5464-1 by agar dilution method in presence of 5% laked sheep blood; format: functional
Fusobacterium mortiferum = assay: Antimicrobial activity against Fusobacterium mortiferum by agar dilution method in presence of 5% laked sheep blood; format: functional
Porphyromonas gingivalis [20] = assay: Antimicrobial activity against Porphyromonas gingivalis by agar dilution method in presence of 5% laked sheep blood; format: functional
[21] = tested on: Sutterella wadsworthensis; assay: Antimicrobial activity against Sutterella wadsworthensis ATCC 51579 by agar dilution method in presence of 5% laked sheep blood; format: functional
[22] = tested on: Bacteroides heparinolyticus; assay: Antimicrobial activity against Prevotella heparinolytica ATCC 35895 by agar dilution method in presence of 5% laked sheep blood; format: functional
[23] = tested on: Parabacteroides distasonis; assay: Antimicrobial activity against Parabacteroides distasonis by agar dilution method in presence of 5% laked sheep blood; format: functional
Prevotella corporis = assay: Antimicrobial activity against Prevotella corporis GAI 91000 by agar dilution method in presence of 5% laked sheep blood; format: functional
Bacteroides fragilis [24] = assay: Antimicrobial activity against Bacteroides fragilis GAI 10150 by agar dilution method in presence of 5% laked sheep blood; format: functional
Parvimonas micra [25] = assay: Antimicrobial activity against Parvimonas micra by agar dilution method in presence of 5% laked sheep blood; format: functional
Porphyromonas uenonis = assay: Antimicrobial activity against Porphyromonas uenonis by agar dilution method in presence of 5% laked sheep blood; format: functional
Prevotella intermedia = assay: Antimicrobial activity against Prevotella intermedia by agar dilution method in presence of 5% laked sheep blood; format: functional
Fusobacterium sp. = assay: Antimicrobial activity against Fusobacterium sp. by agar dilution method in presence of 5% laked sheep blood; format: functional
Prevotella oris = assay: Antimicrobial activity against Prevotella oris ATCC 33573 by agar dilution method in presence of 5% laked sheep blood; format: functional; conditions: Segatella oris
[26] = tested on: Peptostreptococcus anaerobius; assay: Antimicrobial activity against Peptostreptococcus anaerobius by agar dilution method in presence of 5% laked sheep blood; format: functional
Clostridium perfringens = assay: Antimicrobial activity against Clostridium perfringens ATCC 13124 by agar dilution method in presence of 5% laked sheep blood; format: functional
[27] = tested on: Porphyromonas asaccharolytica; assay: Antimicrobial activity against Porphyromonas asaccharolyticus by agar dilution method in presence of 5% laked sheep blood; format: functional
[28] = tested on: Peptoniphilus asaccharolyticus; assay: Antimicrobial activity against Peptoniphilus asaccharolyticus by agar dilution method in presence of 5% laked sheep blood; format: functional
[29] = tested on: Porphyromonas asaccharolytica; assay: Antimicrobial activity against Porphyromonas asaccharolyticus ATCC 25260 by agar dilution method in presence of 5% laked sheep blood; format: functional; conditions: DSM 20707
Bacteroides caccae = assay: Antimicrobial activity against Bacteroides caccae by agar dilution method in presence of 5% laked sheep blood; format: functional

C[C@@H](O)[C@H]1C(=O)N2C(C(=O)O)=C(S[C@H]3C[C@@H](C(=O)N4CC[C@H](NC(=O)CNC(=N)N)C4)N(C)C3)[C@H](C)[C@H]12 [TOMOPENEM]
MIC50 (Bacteroides fragilis [1]): 0.25 µg/mL
MIC90 (Bacteroides fragilis [1]): 1 µg/mL
MIC (Phocaeicola vulgatus [2]): 0.25 µg/mL
MIC [3]: 0.03 µg/mL
MIC [4]: 0.03 µg/mL
MIC (Bacteroides fragilis [5]): 1 µg/mL
MIC50 (Eggerthella lenta): 0.5 µg/mL
MIC90 (Eggerthella lenta): 0.5 µg/mL
MIC [6]: 0.125 µg/mL
MIC50 (Clostridioides difficile): 1 µg/mL
MIC90 (Clostridioides difficile): 2 µg/mL
MIC (Bacteroides fragilis [7]): 0.25 µg/mL
MIC50 [8]: ≤ 0.015 µg/mL
MIC90 [8]: 0.5 µg/mL
MIC50 (Eubacterium limosum): 0.5 µg/mL
MIC90 (Eubacterium limosum): 0.5 µg/mL
MIC50 [9]: 0.5 µg/mL
MIC90 [9]: 2 µg/mL
MIC50 [10]: 0.125 µg/mL
MIC90 [10]: 0.5 µg/mL
MIC [11]: 0.125 µg/mL
MIC50 (Bacteroides uniformis): 0.5 µg/mL
MIC90 (Bacteroides uniformis): 4 µg/mL
MIC50 [12]: 0.125 µg/mL
MIC90 [12]: 0.5 µg/mL
MIC [13]: 0.125 µg/mL
MIC [14]: 0.125 µg/mL
MIC (Bacteroides fragilis [15]): 0.125 µg/mL
MIC50 (Phocaeicola vulgatus [16]): 0.5 µg/mL
MIC90 (Phocaeicola vulgatus [16]): 4 µg/mL
MIC50 (Prevotella sp.): 0.125 µg/mL
MIC90 (Prevotella sp.): 0.5 µg/mL
MIC (Lactobacillus brevis): 0.25 µg/mL
MIC (Prevotella buccae): 0.25 µg/mL
MIC (Porphyromonas gingivalis [17]): 0.03 µg/mL
MIC50 (Finegoldia magna): 0.06 µg/mL
MIC90 (Finegoldia magna): 0.125 µg/mL
MIC (Bacteroides fragilis [18]): 4 µg/mL
MIC (Parvimonas micra [19]): 0.125 µg/mL
MIC50 (Fusobacterium mortiferum): ≤ 0.015 µg/mL
MIC90 (Fusobacterium mortiferum): 0.5 µg/mL
MIC50 (Porphyromonas gingivalis [20]): 0.03 µg/mL
MIC90 (Porphyromonas gingivalis [20]): 0.06 µg/mL
MIC [21]: 0.5 µg/mL
MIC [22]: 0.125 µg/mL
MIC50 [23]: 0.5 µg/mL
MIC90 [23]: 4 µg/mL
MIC (Prevotella corporis): 0.06 µg/mL
MIC (Bacteroides fragilis [24]): 4 µg/mL
MIC50 (Parvimonas micra [25]): 0.125 µg/mL
MIC90 (Parvimonas micra [25]): 0.125 µg/mL
MIC50 (Porphyromonas uenonis): 0.03 µg/mL
MIC90 (Porphyromonas uenonis): 0.06 µg/mL
MIC50 (Prevotella intermedia): 0.06 µg/mL
MIC90 (Prevotella intermedia): 0.125 µg/mL
MIC50 (Fusobacterium sp.): ≤ 0.015 µg/mL
MIC90 (Fusobacterium sp.): 0.5 µg/mL
MIC (Prevotella oris): 0.125 µg/mL
MIC50 [26]: 0.5 µg/mL
MIC90 [26]: 4 µg/mL
MIC (Clostridium perfringens): 0.03 µg/mL
MIC50 [27]: 0.03 µg/mL
MIC90 [27]: 0.06 µg/mL
MIC50 [28]: ≤ 0.015 µg/mL
MIC90 [28]: 0.06 µg/mL
MIC [29]: ≤ 0.015 µg/mL
MIC50 (Bacteroides caccae): 0.5 µg/mL
MIC90 (Bacteroides caccae): 4 µg/mL

CC(=N)N1CC[C@H](SC2=C(C(=O)O)N3C(=O)[C@H]([C@@H](C)O)[C@H]3C2)C1
MIC50 (Bacteroides fragilis [1]): 0.25 µg/mL
MIC90 (Bacteroides fragilis [1]): 8 µg/mL
MIC (Phocaeicola vulgatus [2]): 0.125 µg/mL
MIC [3]: 0.25 µg/mL
MIC [4]: 0.125 µg/mL
MIC (Bacteroides fragilis [5]): 0.5 µg/mL
MIC50 (Eggerthella lenta): 1 µg/mL
MIC90 (Eggerthella lenta): 2 µg/mL
MIC [6]: 0.03 µg/mL
MIC50 (Clostridioides difficile): 4 µg/mL
MIC90 (Clostridioides difficile): 8 µg/mL
MIC (Bacteroides fragilis [7]): 0.25 µg/mL
MIC50 [8]: 0.125 µg/mL
MIC90 [8]: 2 µg/mL
MIC50 (Eubacterium limosum): 1 µg/mL
MIC90 (Eubacterium limosum): 2 µg/mL
MIC50 [9]: 0.5 µg/mL
MIC90 [9]: 2 µg/mL
MIC50 [10]: 0.5 µg/mL
MIC90 [10]: 1 µg/mL
MIC [11]: 0.25 µg/mL
MIC50 (Bacteroides uniformis): 1 µg/mL
MIC90 (Bacteroides uniformis): 4 µg/mL
MIC50 [12]: 0.125 µg/mL
MIC90 [12]: 0.25 µg/mL
MIC [13]: 0.25 µg/mL
MIC [14]: 0.25 µg/mL
MIC (Bacteroides fragilis [15]): 0.25 µg/mL
MIC50 (Phocaeicola vulgatus [16]): 1 µg/mL
MIC90 (Phocaeicola vulgatus [16]): 4 µg/mL
MIC50 (Prevotella sp.): 0.125 µg/mL
MIC90 (Prevotella sp.): 0.25 µg/mL
MIC (Lactobacillus brevis): 0.03 µg/mL
MIC (Prevotella buccae): 0.25 µg/mL
MIC (Porphyromonas gingivalis [17]): 0.03 µg/mL
MIC50 (Finegoldia magna): 0.25 µg/mL
MIC90 (Finegoldia magna): 0.5 µg/mL
MIC (Bacteroides fragilis [18]): 4 µg/mL
MIC (Parvimonas micra [19]): 0.125 µg/mL
MIC50 (Fusobacterium mortiferum): 0.125 µg/mL
MIC90 (Fusobacterium mortiferum): 2 µg/mL
MIC50 (Porphyromonas gingivalis [20]): 0.06 µg/mL
MIC90 (Porphyromonas gingivalis [20]): 0.06 µg/mL
MIC [21]: 0.5 µg/mL
MIC [22]: 0.125 µg/mL
MIC50 [23]: 1 µg/mL
MIC90 [23]: 4 µg/mL
MIC (Prevotella corporis): 0.125 µg/mL
MIC (Bacteroides fragilis [24]): 8 µg/mL
MIC50 (Parvimonas micra [25]): 0.125 µg/mL
MIC90 (Parvimonas micra [25]): 0.125 µg/mL
MIC50 (Porphyromonas uenonis): 0.06 µg/mL
MIC90 (Porphyromonas uenonis): 0.06 µg/mL
MIC50 (Prevotella intermedia): 0.06 µg/mL
MIC90 (Prevotella intermedia): 0.25 µg/mL
MIC50 (Fusobacterium sp.): 0.125 µg/mL
MIC90 (Fusobacterium sp.): 2 µg/mL
MIC (Prevotella oris): 0.06 µg/mL
MIC50 [26]: 0.125 µg/mL
MIC90 [26]: 1 µg/mL
MIC (Clostridium perfringens): 0.03 µg/mL
MIC50 [27]: 0.06 µg/mL
MIC90 [27]: 0.06 µg/mL
MIC50 [28]: 0.03 µg/mL
MIC90 [28]: 0.06 µg/mL
MIC [29]: 0.03 µg/mL
MIC50 (Bacteroides caccae): 1 µg/mL
MIC90 (Bacteroides caccae): 4 µg/mL
